Assay results reported in US8226972B2, “Vaginal delivery of drugs” (FemmePharma Holding Company, Inc., priority 2001, dated 2012).
Where a name gives a salt, the structure may show the parent alone. Read-outs that look alike come from different tables or passages of the source.

Columns and labels:
[1] = system: urgency incontinence; assay: Example 4: clinical case studies, urgency incontinence / urinary frequency, urgency and nocturia; format: in vivo, human; details: person
Procedure: A person developed urgency incontinence two years after their laparoscopically assisted vaginal hysterectomy. […] However they experienced side effects, such as dry mouth, from the drug. Two weeks later, they started applying oxybutynin (5 mg) into the vagina at bed time, instead of Ditropan XL. […] The patient used vaginal oxybutynin (5 mg) at bed time for 6 months.
A person with a history of chronic pelvic pain and multiple surgical procedures, including pain mapping under conscious sedation and repair of occult bilateral inguinal hernias, developed urinary frequency, urgency and nocturia. Their urine analysis and urine culture were negative for signs of urinary tract infection. Their treatment began with vaginal oxybutynin (5 mg) once daily, at bed time, applied into the vagina.

[2] = system: bladder; assay: Example 2: bladder contractile response to intra-arterial Ach; format: in vivo, rabbit
Excerpt: (§1) 16 mature female New Zealand white rabbits were separated into two groups of eight. The rabbits in Group 1 received a high dose oxybutynin formulations; and the rabbits in Group 2 received a low dose oxybutynin formulation. For the high dose, 3 grams (g) of oxybutynin HCl were suspended in 6 g of gel (yielding a concentration of 0.5 g Oxybutynin/g gel) and 3 g of the formulation were placed in the vagina. For the low dose, 0.3 g of oxybutynin HCl were suspended in 6 g of gel (yielding a concentration of 0.05 g Oxybutynin/g gel), and 3 g of the formulation were placed in the vagina.
(§2) Acetylcholine (Ach), a chemical that causes the bladder muscle (detrusor) to squeeze or contract, was injected through the intra-arterial polyethylene catheter in a volume of 0.31-0.39 mL (i.e., 0.1 mL/kg of rabbit), followed by 0.2 mL of heparinized saline. Change of intravesical pressure following the administration of Ach (10^−6 mol/kg) was monitored by the pressure transducer and recorded on a Grass model 7D polygraph. A 10-minute interval passed between Ach administrations, and three flushes of normal saline, in an amount of 0.1 ml/kg of rabbit, were administered. Three responses to Ach were performed at 10-minute intervals to ensure consistent responses.
(§3) After the third Ach administration, the application of the oxybutynin containing gel was administered to the vagina and the responses to Ach were determined at 15-minute intervals for 2 hours. When the response to Ach was reduced, then the time period was extended to 4 hours. At the end of the experiment, a second cystometric curve was generated.
(§4) The protocol described in Example 1 was followed in this experiment, with the following changes. The infusion pump was turned on and, at an infusion rate of 1.42 mL/minute, a cystometric curve was generated.

[3] = system: bladder; assay: Example 1: bladder pressure response to intra-arterial Ach after vaginal oxybutynin gel; format: in vivo, rabbit; details: for response of the bladder pressure to Ach: high dose (0.5 g Oxybutynin/g gel, 3 g vaginal)
Excerpt: as §1
(§5) Each rabbit was sedated with an intramuscular injection of ketamine-xylazine ((25 mg ketamine+6 mg xylazine)/kg rabbit) and anesthesia was maintained by isoflurane. After anesthesia, the right external carotid artery was cannulated for blood pressure monitoring. A polyethylene catheter (Intramedic) with an outer diameter of 0.043 inches was inserted through the rabbit's right femoral artery until it reached the lower abdominal aorta (approximately 0.5 cm above the bifurcation of the aorta). A heparizined saline (30 iu/mL) filled polyethylene catheter was used for intra-arterial administration of drugs. To facilitate the delivery of the maximum amount of drugs to the urinary bladder, the rabbit's left femoral artery was ligated.
(§6) The bladder was exposed through a midline incision, and the bladder dome was catheterized with an 8 F catheter for both the monitoring of bladder pressure and for cystometry. The bladder neck-urethra was ligated to prevent micturition or leakage through the urethra. The catheter was connected to an infusion pump (Harvard Apparatus) and a pressure transducer.
as §2, §3

[4] = system: blood pressure; assay: Example 2: vascular response to Ach; format: in vivo, rabbit; details: entire 4-hour period
Excerpt: as §1
Each rabbit was sedated with an intramuscular injection of ketamine-xylazine ((25 mg ketamine+6 mg xylazine)/kg rabbit) and anesthesia was maintained by isoflurane. […]
Acetylcholine (Ach), a chemical that causes the bladder muscle (detrusor) to squeeze or contract, was injected through the intra-arterial polyethylene catheter in a volume of 0.31-0.39 mL (i.e., 0.1 mL/kg of rabbit), followed by 0.2 mL of heparinized saline. Change of intravesical pressure following the administration of Ach (10^−6 mol/kg) was monitored by the pressure transducer and recorded on a Grass model 7D polygraph. […]
(§7) After the third Ach administration, the application of the oxybutynin containing gel was administered to the vagina and the responses to Ach were determined at 15-minute intervals for 2 hours. […]

[5] = system: bladder; assay: Example 2: cystometry at 1.42 mL/minute after vaginal oxybutynin; format: in vivo, rabbit
Excerpt: as §1, §6
Then, the rabbit was taken off of the isoflurane and anesthesia was maintained by ketamine-xylazine so that micturition reflexes could be observed during cystometry. After 15 minutes, the infusion pump was turned on and at an infusion rate of 1.0 mL/minute, a cystometric curve was generated. The volume at which a micturition reflex was observed was considered to be the functional capacity of the bladder. Bladder capacity and Bladder Compliance were determined. The bladder was then filled to 20 mL.
as §3, §4

[6] = system: bladder; assay: Example 1: cystometry (bladder capacity, Bladder Compliance); format: in vivo, rabbit; details: high dose (0.5 g/g gel) vaginal
Excerpt: as §1, §6
Then, the rabbit was taken off of the isoflurane and anesthesia was maintained by ketamine-xylazine so that micturition reflexes could be observed during cystometry. […] Bladder capacity and Bladder Compliance were determined. […]
as §7

[7] = system: bladder; assay: Example 3: cystometry after vaginal or oral oxybutynin; format: in vivo, rabbit; details: for micturition pressure: four hours after administration
Procedure: (§8) 30 mature female New Zealand white rabbits (˜4 kg) were separated into five groups of six rabbits each. Intra arterial administration of Ach was used as a model for hyperreflexia. The effects on intra arterial stimulated contraction were compared with effects on micturition pressure generation.
as §5, with “Central Mutual” for “cm”
as §6, with “tranducer. The right carotid artery was cannulated for monitoring blood pressure. Bladder pressure and blood pressure were recorded on a Grass model 7D Polygraph, and were simultaneously digitized using a Polyview A/D digital analytical system.” for “transducer.”
(§9) Cystometry was performed at 1.4 mL/min until a micturition contraction or a volume of 80 mL was obtained. After the first cystometry, Ach (10^−6 mol/kg) was injected through the intra-arterial polyethylene catheter in a volume of 0.1 ml/kg followed by three washes of 0.2 ml of heparinized saline. The blood pressure and bladder pressure responses were recorded and digitized.
(§10) After three consistent Ach tests, (i.e. responses within 20% of each other) the rabbits in the control group (Group 1) received a vaginal administration of 3 mL of gel (no oxybutynin); the rabbits in the high dose group (Group 2) received a vaginal administration of 1.5 g of oxybutynin suspended in 3 mL of gel; the rabbits in the intermediate dose group (Group 3) received 0.5 g of oxybutynin suspended in 3 mL of gel; the rabbits in the low dose group (Group 4) received a vaginal administration of 0.15 g of oxybutynin suspended in 3 mL of gel; and the rabbits in the oral dose group (Group 5) received 0.5 g of an oral preparation of oxybutynin dissolved in 3 mL of saline.
(§11) Ach was administered at 10 minute intervals for two hours, and then a second cystometry was performed. Ach administration continued at 10 minute intervals for a second two hour period, and then a final cystometry performed.
(§12) Statistical significance was determined using analysis of variance followed by Bonferroni test for individual differences. A p<0.05 was required for significance.

[8] = system: bladder; assay: Example 3: bladder response to intra-arterial Ach (model for hyperreflexia); format: in vivo, rabbit
Procedure: as §8
as §5, with “Central Mutual” for “cm”
as §6, with “tranducer. The right carotid artery was cannulated for monitoring blood pressure. Bladder pressure and blood pressure were recorded on a Grass model 7D Polygraph, and were simultaneously digitized using a Polyview A/D digital analytical system.” for “transducer.”
as §9, §10, §11, §12

[9] = system: blood pressure; assay: Example 1: blood pressure response to intra-arterial Ach after vaginal oxybutynin gel; format: in vivo, rabbit
Excerpt: as §1, §5, §2, §3

[10] = system: blood pressure; assay: Example 3: vascular (blood pressure) response to Ach; format: in vivo, rabbit
Procedure: as §8
as §5, with “Central Mutual” for “cm”
as §6, with “tranducer. The right carotid artery was cannulated for monitoring blood pressure. Bladder pressure and blood pressure were recorded on a Grass model 7D Polygraph, and were simultaneously digitized using a Polyview A/D digital analytical system.” for “transducer.”
Cystometry was performed at 1.4 mL/min until a micturition contraction or a volume of 80 mL was obtained. […] The blood pressure and bladder pressure responses were recorded and digitized. […]
Statistical significance was determined using analysis of variance followed by Bonferroni test for individual differences. […]

[11] = solid device containing oxybutynin inserted in the vagina of a rabbit (Schröder); cited from earlier work
[12] = system: urge incontinence; details: cited from earlier work
[13] = low dose (0.05 g/g gel) vaginal, two out of three experiments
[14] = vaginally delivered high dose, overall
[15] = 5 mg into the vagina at bed time
[16] = 5 mg into the vagina twice daily
[17] = vaginal 5 mg at bed time for 6 months
[18] = oxybutynin solution delivered by catheter (Saito)

Cc1ccc(O)c([C@H](CCN(C(C)C)C(C)C)c2ccccc2)c1 [DETROL®, tolterodine tartrate]
improvement of urgency incontinence ([1]; 2 mg orally twice a day): slight improvement

CCN(CC)CC#CCOC(=O)C(O)(c1ccccc1)C1CCCCC1 (stereo not drawn) [free base form, oxybutynin]
response to Ach ([2]; high dose of the free base form): no effect

CCN(CC)CC#CCOC(=O)C(O)(c1ccccc1)C1CCCCC1 (stereo not drawn) [oxybutynin]
response of the bladder pressure to Ach ([3]; 15 minutes after administration): completely lost
response of the bladder pressure to Ach ([3]; 4 hours after administration): did not increase
reduction of the response of the bladder pressure to Ach ([3]; low dose (0.05 g/g gel) vaginal, one experiment): about 50%
effect on bladder pressure response to Ach [3, 13]: no significant effect
contractile response of the bladder to Ach [3, 14]: significantly reduced
side effects [1, 15]: did not experience any noticeable side effects
urgency symptoms [1, 15]: improved remarkably
improvement of symptoms [1, 16]: remarkable improvement
side effects [1, 16]: no significant side effects
control of symptoms of urgency incontinence [1, 17]: remained effective
side effects [1, 17]: did not suffer from any side effects
improvement of urinary frequency, urgency and nocturia ([1]; vaginal 5 mg once daily at bed time): significant improvement
contractile response to intra-arterial Ach ([2]; high dose vaginal, after 4 hours): not restored
contractile response to intra-arterial Ach ([2]; high dose vaginal, at 15 minutes): complete inhibition
contractile response to intra-arterial Ach ([2]; low dose vaginal, at 45 minutes): decreased response
intravesical pressure response to intra-arterial Ach ([2]; low dose vaginal, from 45 minutes for the remaining 2.25 hours): about 7 cm H2O
vascular response to Ach ([4]; high dose vaginal): no effect
vascular response to Ach ([4]; low dose vaginal): no effect
Bladder Compliance ([5]; high dose vaginal): significant decrease
intravesical pressure during cystometry ([5]; high dose vaginal): decreased
intravesical volume at micturition (no micturition reflex up to this volume; cystometry stopped) ([5]; high dose vaginal, before approximately 20 mL): > 80 mL
micturition reflex ([5]; high dose vaginal, up to bladder volume of 80 mL): inhibited
Bladder Compliance ([5]; low dose vaginal): decrease
intravesical pressure during cystometry (at micturition) ([5]; low dose vaginal, after administration (about 15 before), FIG. 4): about 8 cm H2O
pressure at which micturition occurred ([5]; low dose vaginal, after administration (about 16 before), FIG. 3): about 8 cm H2O
magnitude of the micturition reflex (micturition pressure) ([5]; low dose vaginal, after administration (about 22 before)): about 10 cm H2O
intravesical volume at micturition ([5]; low dose vaginal, after treatment, approximately the same as before): about 22 mL
Bladder Compliance [6]: significant decrease
bladder volume at micturition [6]: increase
bladder volume at micturition ([7]; all of the formulations (vaginal low, intermediate, high; oral)): significant increase
Bladder Compliance ([7]; all oxybutynin-treated groups): decreased
decrease of Bladder Compliance ([7]; high dose vaginal): 7.3 fold
micturition reflex ([7]; highest dose): virtually eliminated
decrease of Bladder Compliance ([7]; intermediate dose vaginal): 4.5 fold
decrease of Bladder Compliance ([7]; low dose vaginal): 3.3 fold
intravesical pressure immediately prior to micturition ([7]; oral (0.5 g in 3 mL saline)): significantly reduced
inhibitory effects on the micturition reflex, oral compared with the vaginal route ([7]; oral preparation vs intermediate dose vaginal): significantly greater inhibitory effects
effect on Bladder Compliance and bladder capacity, oral compared with the vaginal route ([7]; oral preparation vs intermediate dose vaginal (equal effects on Ach stimulated contraction)): smaller effect
micturition pressure ([7]; oral): significantly reduced
intravesical pressure immediately prior to micturition ([7]; vaginal high dose (1.5 g in 3 mL gel)): significantly reduced
micturition pressure ([7]; vaginal high dose): significantly reduced
intravesical pressure immediately prior to micturition ([7]; vaginal intermediate dose (0.5 g in 3 mL gel)): significantly reduced
micturition pressure ([7]; vaginal intermediate dose): not significantly affected
intravesical pressure immediately prior to micturition ([7]; vaginal low dose (0.15 g in 3 mL gel)): no significant effect
micturition pressure ([7]; vaginal low dose): not significantly affected
response to Ach compared to the control response ([8]; all preparations of oxybutynin): statistically significant decrease
onset of action ([8]; high dose vaginal): very fast
response to Ach ([8]; high dose vaginal, at 30 minutes, remained active throughout the 4 hour study): completely inhibited
response to acetylcholine ([8]; highest dose): completely eliminated
response to Ach ([8]; intermediate vaginal dose, reached over 90 minutes, remaining for the rest of the experiment): approximately 40 % of control
response to Ach ([8]; low vaginal dose, reached over 90 minutes, remaining for the rest of the experiment): approximately 40 % of control
response to Ach ([8]; oral, reached over 90 minutes, remaining for the rest of the experiment): approximately 40 % of control
response of the blood pressure to Ach ([9]; high dose (0.5 g/g gel) vaginal, 15 minutes after administration): clear response
response of the blood pressure to Ach ([9]; high dose (0.5 g/g gel) vaginal, 4 hours after administration): decreased
effect on blood pressure response to Ach [9, 13]: no significant effect
response of the blood pressure to Ach [9, 14]: without having any significant effects
vascular response to Ach ([10]; any dose, vaginally delivered, entire 4 hour period): no effect
effects on the cardiovascular system ([10]; highest dose): only minor effects
blood pressure response to Ach ([10]; oral): inhibitory effects
systemic levels of oxybutynin [11]: effective at reducing the systemic levels
side effects ([12]; intravesical administration (Brendler)): no side effects were observed
patients who reported improvement and became totally continent ([12]; intravesical administration, eleven patients with persistent urge incontinence (Brendler)): Ten out of eleven
effectiveness in urinary incontinence [12, 18]: effective
side effects [12, 18]: did not experience side effects
